Entries after “also recorded” stand apart in the source; their conditions may differ.
Experiments:
SW480 cells [1] = experiment: Indirect immunofluorescence for 53BP1 foci in SW480 cells; format: cell-based, human; conditions: 6 days treatment
Experimental: Indirect Immunofluorescence. Cells were treated with compounds for 6 days, following which they were adhered to glass coverslips, washed with PBS and then fixed with 3% paraformaldehyde in PBS for 20 minutes. Fixed cells were rinsed with PBS and permebealised with 0.5% Triton-X-100 for 5 minutes. PBS washed slides were incubated for 1 hour with 10% FCS and 0.1% Triton-X-100 in PBS following which cells were stained with an anti-53BP1 monoclonal antibody (H-300, Santa Cruz, diluted 1:600), in 10% FCS and 0.1% Triton-X-100 in PBS. […] After a PBS wash, DNA was counterstained with DAPI (Sigma-Aldrich) for 10 minutes and the coverslips were mounted in Fluorescent Mounting Medium (Dako). Images were analysed with a Zeiss fluorescent microscope at 63 times magnification with supporting software.

SW480 cells [2] = experiment: Alkaline comet assay (DNA single strand breaks) in SW480 cells; format: cell-based, human; conditions: 6 days treatment, alkali conditions
Experimental: Comet Assay. Cells were treated with compounds for 6 days, upon which DNA single-strand breaks were assayed using the comet assay under alkali conditions. […] Cells were washed twice with PBS, harvested using a rubber scraper, pelleted by centrifugation, resuspended in PBS and mixed with 1% low-gelling-temperature agarose (Sigma type VII) that was maintained at 37° C. The mixture of cells and agarose was layered onto frosted glass slides pre-coated with 0.5% agarose and slides were placed on ice to gel. Slides were maintained in the dark for all subsequent steps. […] After electrophoresis for 25 minutes at 25 volts, slides were placed at 4° C. over-night, in the dark. The following day, slides were neutralized with 0.4 M Tris-HCl pH 7.0 for 1 hour and stained with SYBR Gold (Invitrogen, diluted 1:10,000 in distilled water) for 30 minutes. Comet tail moments (defined as the average distance migrated by the DNA multiplied by the fraction of DNA in the comet tail) were scored using the CellProfiler cell image analysis software.

BJ skin fibroblasts = experiment: Colony formation assay with untransformed BJ skin fibroblasts; format: cell-based, human; conditions: 10 days incubation
[3] = test system: isogenic BJ fibroblast cell lines; experiment: Colony formation assays in isogenic BJ fibroblast cell lines (anti-cancer specificity); format: cell-based; conditions: hTERT+SV40T, hTERT+SV40T+KRAS V12
Excerpt: FIG. 28: Anti-cancer specificity. […] As indicated, the investigated cell line panel comprised non-transformed (“wildtype”) cells, cells immortalized with telomerase (hTERT), cells transformed with hTERT and SV40 Large T antigen (SV40T), and cells transformed with hTERT, SV40T, and the KRAS mutant V12.
The investigated cell line panel comprised non-transformed (“wildtype”) cells, cells immortalized with telomerase (hTERT), cells transformed with hTERT and SV40 Large T antigen (SV40T), and cells transformed with hTERT, SV40T, and the KRAS mutant V12 (FIG. 28).

SW480 cells [4] = experiment: Colony formation assay using SW480 cells; format: cell-based, human; conditions: K-Ras-mutated SW480 colon carcinoma
Experimental: Colony Formation Assay Using SW480 Cells. One day before treatment, 10^4 cells were seeded per well in 6-well plates and incubated for 24 h. The next day DMSO (equal to highest amount of compound dilution, maximum 0.2%) or compounds in increasing concentrations were added and cells incubated at 37° C., 5% CO2, for 7-10 days. After washing with PBS (Gibco), cells were fixed with ice-cold methanol, stained with crystal violet solution (0.5% in 25% methanol) and left to dry overnight. For quantification of results, UV absorbance of crystal violet was determined at 595 nm after solubilisation by 70% ethanol. Data were analysed using non-linear regression analysis utilizing the GraphPad Prism software.

[5] = test system: SW480 colon carcinoma cells lysate proteins; format: binding, human; conditions: immobilized aminopropyl derivative of (S)-crizotinib
SW480 cells [6] = experiment: SW480 mouse xenograft study; format: in vivo, SCID mice; conditions: 25 mg/kg s.c. once daily, 35 days
Experimental: (§1) Xenograft Study. SCID mice (female, 5-6 weeks, Scanbur, Germany) were s.c. injected with 1×10^6 SW480 cells together with a matrix gel (1:1) in the sacral area. Treatment was initiated one day after cell inoculation. Vehicle or MTH1 inhibitor was administered subcutaneously once daily at 25 mg/kg for 35 days. MTH1 inhibitor was diluted in 1% DMSO, 10% ethanol, 10% cremaphore, 10% Tween 80, 69% PBS. Tumour size was measured twice weekly and body weight once weekly. At termination, a gross postmortem inspection was performed; blood was collected for haematological parameters and ASAT, ALAT, creatinine measurements and tumours collected in paraformaldehyde (4%) and later paraffin inbedded for immunohistology analysis. All experiments involving animals followed protocols approved by Stockholms Norra djurfOrsoksetiska namnd (laboratory animal ethical committee Stockholm). All animals were acclimatised for one week, and had free access to water and food during the experiment. Animals were under a 12-hour lightcycle, and temperature and humidity according to laboratory animal guidelines and regulations.

BJ fibroblasts = experiment: 8-oxo-guanine staining in BJ cells; conditions: fixed 72 h later
[7] = test system: PANC1 pancreatic cancer cells; experiment: Colony formation assay using PANC1 cells; format: cell-based, human; conditions: K-Ras mutated PANC1
MCF-7 = conditions: 10 μM, versus DMSO-treated cells
MDA-MB-231 = conditions: 10 μM, versus DMSO-treated cells; KRAS G13D
[8] = Tolerability in the xenograft study: hematology, liver/heart/kidney parameters, body weight; format: in vivo, SCID mice
Experimental: as §1, with “MTH1 inhibitor was diluted in 1% DMSO, 10% ethanol, 10% cremaphore, 10% Tween 80, 69% PBS.” left out

SW480 cells [9] = experiment: ATM phosphorylation in SW480 cells; format: cell-based, human
[10] = test system: HCT116 colon carcinoma cells; experiment: HCT116 isogenic cell line system (p53/p21/MLH1 status); conditions: HCT116 isogenic lines
[11] = 25 mg/kg s.c. 35 days, EDTA plasma, mean ± SD
[12] = 25 mg/kg s.c. 35 days, mean ± SD

In the case of C[C@H](Oc1cc(-c2cnn(C3CCNCC3)c2)cnc1N)c1c(Cl)ccc(F)c1Cl [(S)-enantiomer of crizotinib, (S)-3-[1-(2,6-dichloro-3-fluoro-phenyl)-ethoxy]-5-(1-piperidin-4-yl-1H-pyrazol-4-yl)-pyridin-2-ylamine], the “number of 53BP1 foci” value (SW480 cells [1]) is reported as “increase the number of 53BP1 foci”, the “tail moment in the comet assay” value (SW480 cells [2]) is reported as “yielded a significant tail moment” and the “toxicity on non-transformed BJ skin fibroblasts (colony formation)” value (BJ skin fibroblasts) is reported as “does not exhibit any increased unspecific cytotoxicity”. The “toxicity to transformed versus wildtype / hTERT-immortalized BJ cells” value [3] was “more toxic to transformed cells than to wildtype cells”, the “colony formation / growth of SW480 cells” value (SW480 cells [4]) was “efficiently inhibited colony formation; also recorded: considerably more effective” and the “main cellular target in SW480 cells” value [5] was “MTH1 (gene name NUDT1) is the main target”. The “reduction in tumour volume” value (SW480 cells [6]) was “more than 50%”, the “staining of anti-8-oxo-guanine antibody” value (BJ fibroblasts) was “increased staining” and the “colony formation of PANC1 cells” value [7] was “efficiently inhibited colony formation”. The “growth of MCF-7 in colony formation assay” value (MCF-7) was “significantly decreased the growth”, the “growth of MDA-MB-231 in colony formation assay” value (MDA-MB-231) was “significantly decreased the growth” and the P-ALAT [8, 11] was 0.26 ± 0.07 mCat/l. For the same molecule, the p-ASAT [8, 11] was 1.10 ± 0.32 mCat/l, the p-Creatinine [8, 11] was 18.6 ± 4.24 µM and the HBG [8, 12] was 134 ± 6.25 g/L. The Lymphocytes [8, 12] was 0.23 ± 0.06 10^9/l, the MCH [8, 12] was 14.07 ± 0.30 pg and the MCHC [8, 12] was 327 ± 4.90 g/L. For the same molecule, the MCV [8, 12] was 43.02 ± 1.07 fL, the Monocytes [8, 12] was 0.16 ± 0.11 10^9/l and the Neutrophils [8, 12] was 1.50 ± 0.51 10^9/l. The RBC [8, 12] was 9.51 ± 0.37 10^12/l, the Thrombocytes [8, 12] was 828 ± 160 10^9/l and the WBC [8, 12] was 1.90 ± 0.64 10^9/l. For the same molecule, the tolerability ([8]; 25 mg/kg s.c. once daily, 35 days) was “well-tolerated”, the “change in haematological parameters” value ([8]; 25 mg/kg s.c., 35 days, versus vehicle) was “no significant change” and the ATM phosphorylation (SW480 cells [9]) was “increase of ATM phosphorylation”. The “effect of loss of p21 on sensitivity of HCT116 cells” value [10] was “seems to increase the sensitivity” and the “effect of p53 status and functional MLH1 on activity in HCT116 cells” value [10] was “do not affect the activity”.

From patent publication US9446039B2, “Aminoheteroaryl compounds as MTH1 inhibitors” (CEMM—FORSCHUNGSZENTRUM FÜR MOLEKULARE MEDIZIN GMBH, priority 2012, dated 2016)
